Here are results for one molecule from patent US20260101892A1, “METHOD TO INHIBIT PROLIFERATION OF A PHYTOPATHOGEN ON PLANTS AND COMPOSITIONS USED FOR THIS PURPOSE” (CYSBIO APS, priority 2022, published 2026).

For one data set, the system named is Alternaria alternata. Kind of data set: Post-harvest preservation of capsicums. Format: in vivo. The following applies: capsicums sprayed twice, 10° C., followed 25 days, triplicate. The method, then: To investigate if zosteric acid and/or coumaric acid can protect fruit and vegetables against post-harvest infection with different fungi, zosteric and coumaric acids fungicidal effect was tested in capsicums and lemons infected with Alternaria alternata and Penicillium digitatum, respectively. The tests were performed by acquiring the relevant fruit and vegetables from the local supermarket. Both fruit and vegetables were bought as organic produce to ensure a minimum of pesticides had already been applied. […] Each application treatment was performed in triplicate on three separate pieces of produce. After treatment, the produce was allowed to dry in a sterile laminar flow cabinet followed by a second round of application and drying. The produce was then inoculated with the relevant fungal spores using a grafting stick. […] The inoculated produce was subsequently placed in […] plastic bags to prevent contamination with other organisms and to prevent the produce from drying out due to air circulation in the incubator. The wrapped capsicums and lemons were placed at 10° C. and the fungal growth followed by measuring the diameter of the growth from the point of inoculation for 25 days.

Data set [1] relates to European grapes (Vitis vinifera). Kind of data set: Phytotoxicity evaluation in the grapevine downy mildew trial. The following applies: 5% treatment, Example 9 trial.

Consider `O=C(O)/C=C/c1ccc(O)cc1` [coumaric acid], for which the “time after inoculation until A. alternata growth was displayed” value in the data set with Alternaria alternata was 25 days. The molecule also yielded a phytotoxicity in data set [1] of 23.5%.
